# In the kinase profiling compilation of Christmann-Franck et al. (2016):
# How the values were obtained:
# Assay in all cases: KINOMEscan competition binding
# BMPR1A (human) = BMPR1A (human) (UniProt P36894); settings: compound 1.0 µM
# MAP3K5 (human) = MAP3K5 (human) (UniProt Q99683); settings: compound 1.0 µM
# ZAP70 (human) = ZAP70 (human) (UniProt P43403); settings: compound 1.0 µM
# TTK (human) = TTK (human) (UniProt P33981); settings: compound 1.0 µM
# RIPK2 (human) = RIPK2 (human) (UniProt O43353); settings: compound 1.0 µM
# RIPK2 (human), sequence (O43353 whole entry, looked up): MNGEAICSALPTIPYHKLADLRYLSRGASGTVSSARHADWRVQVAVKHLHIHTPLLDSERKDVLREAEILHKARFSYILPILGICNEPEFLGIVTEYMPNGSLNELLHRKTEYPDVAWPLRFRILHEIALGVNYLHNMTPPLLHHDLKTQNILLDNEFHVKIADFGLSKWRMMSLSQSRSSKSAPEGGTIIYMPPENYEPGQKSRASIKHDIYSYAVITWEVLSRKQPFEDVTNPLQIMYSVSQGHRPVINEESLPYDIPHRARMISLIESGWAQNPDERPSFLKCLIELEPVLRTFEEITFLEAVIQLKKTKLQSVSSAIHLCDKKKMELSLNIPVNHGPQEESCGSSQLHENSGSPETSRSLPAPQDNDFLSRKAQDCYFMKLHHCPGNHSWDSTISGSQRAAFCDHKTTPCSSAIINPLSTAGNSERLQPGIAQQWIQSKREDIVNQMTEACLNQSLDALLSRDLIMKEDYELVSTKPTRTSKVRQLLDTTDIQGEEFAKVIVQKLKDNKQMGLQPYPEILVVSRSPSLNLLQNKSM
# [1] = test system: KIT (human), P10721 [V559D/T670I]; settings: for kinase still bound, per cent of control: compound 1.0 µM
# KIT (human), P10721 [V559D/T670I], sequence (P10721 whole entry V559D/T670I, looked up): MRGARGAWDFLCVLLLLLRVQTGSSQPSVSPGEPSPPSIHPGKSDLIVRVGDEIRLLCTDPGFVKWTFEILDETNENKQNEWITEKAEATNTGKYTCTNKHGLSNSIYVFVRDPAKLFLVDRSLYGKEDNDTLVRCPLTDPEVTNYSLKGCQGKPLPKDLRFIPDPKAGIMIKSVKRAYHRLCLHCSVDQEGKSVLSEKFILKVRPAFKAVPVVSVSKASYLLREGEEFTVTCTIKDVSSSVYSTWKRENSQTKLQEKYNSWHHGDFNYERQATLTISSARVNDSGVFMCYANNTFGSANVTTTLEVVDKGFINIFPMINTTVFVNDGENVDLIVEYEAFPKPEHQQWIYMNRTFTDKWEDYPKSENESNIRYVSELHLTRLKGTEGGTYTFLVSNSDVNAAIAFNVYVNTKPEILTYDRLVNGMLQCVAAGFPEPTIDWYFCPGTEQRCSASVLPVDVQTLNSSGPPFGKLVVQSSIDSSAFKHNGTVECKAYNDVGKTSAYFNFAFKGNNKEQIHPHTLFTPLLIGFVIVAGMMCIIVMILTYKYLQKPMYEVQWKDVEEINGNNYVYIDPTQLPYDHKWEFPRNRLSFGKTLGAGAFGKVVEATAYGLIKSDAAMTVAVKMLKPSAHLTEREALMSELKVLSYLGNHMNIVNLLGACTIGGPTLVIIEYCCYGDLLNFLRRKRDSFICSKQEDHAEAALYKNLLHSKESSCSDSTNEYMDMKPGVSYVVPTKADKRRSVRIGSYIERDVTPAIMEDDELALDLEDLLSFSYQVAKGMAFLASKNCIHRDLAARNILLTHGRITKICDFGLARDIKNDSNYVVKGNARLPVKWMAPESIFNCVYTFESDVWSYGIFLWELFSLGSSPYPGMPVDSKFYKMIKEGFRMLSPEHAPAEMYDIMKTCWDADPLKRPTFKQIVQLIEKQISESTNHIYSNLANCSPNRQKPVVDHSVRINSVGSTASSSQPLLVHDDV
# SRPK3 (human) = SRPK3 (human) (UniProt Q9UPE1); settings: compound 1.0 µM
# SRPK3 (human), sequence (Q9UPE1 whole entry, looked up): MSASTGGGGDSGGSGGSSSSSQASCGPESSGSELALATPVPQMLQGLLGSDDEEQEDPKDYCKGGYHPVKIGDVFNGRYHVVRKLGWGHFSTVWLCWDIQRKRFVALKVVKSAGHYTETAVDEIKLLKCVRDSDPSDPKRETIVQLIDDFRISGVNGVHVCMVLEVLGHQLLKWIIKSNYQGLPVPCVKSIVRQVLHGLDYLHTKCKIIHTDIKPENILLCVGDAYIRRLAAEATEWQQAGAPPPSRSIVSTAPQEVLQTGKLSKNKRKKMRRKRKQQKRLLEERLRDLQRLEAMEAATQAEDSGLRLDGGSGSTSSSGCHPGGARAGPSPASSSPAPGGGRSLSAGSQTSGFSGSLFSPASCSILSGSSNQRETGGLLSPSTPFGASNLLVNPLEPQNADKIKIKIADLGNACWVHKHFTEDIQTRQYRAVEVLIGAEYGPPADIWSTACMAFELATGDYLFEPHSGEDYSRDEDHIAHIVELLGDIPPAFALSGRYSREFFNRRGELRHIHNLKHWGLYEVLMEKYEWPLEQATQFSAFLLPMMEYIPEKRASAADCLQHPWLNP
# AKT2 (human) = AKT2 (human) (UniProt P31751); settings: compound 1.0 µM
# TYRO3 (human) = TYRO3 (human) (UniProt Q06418); settings: compound 1.0 µM
# TYRO3 (human), sequence (Q06418 whole entry, looked up): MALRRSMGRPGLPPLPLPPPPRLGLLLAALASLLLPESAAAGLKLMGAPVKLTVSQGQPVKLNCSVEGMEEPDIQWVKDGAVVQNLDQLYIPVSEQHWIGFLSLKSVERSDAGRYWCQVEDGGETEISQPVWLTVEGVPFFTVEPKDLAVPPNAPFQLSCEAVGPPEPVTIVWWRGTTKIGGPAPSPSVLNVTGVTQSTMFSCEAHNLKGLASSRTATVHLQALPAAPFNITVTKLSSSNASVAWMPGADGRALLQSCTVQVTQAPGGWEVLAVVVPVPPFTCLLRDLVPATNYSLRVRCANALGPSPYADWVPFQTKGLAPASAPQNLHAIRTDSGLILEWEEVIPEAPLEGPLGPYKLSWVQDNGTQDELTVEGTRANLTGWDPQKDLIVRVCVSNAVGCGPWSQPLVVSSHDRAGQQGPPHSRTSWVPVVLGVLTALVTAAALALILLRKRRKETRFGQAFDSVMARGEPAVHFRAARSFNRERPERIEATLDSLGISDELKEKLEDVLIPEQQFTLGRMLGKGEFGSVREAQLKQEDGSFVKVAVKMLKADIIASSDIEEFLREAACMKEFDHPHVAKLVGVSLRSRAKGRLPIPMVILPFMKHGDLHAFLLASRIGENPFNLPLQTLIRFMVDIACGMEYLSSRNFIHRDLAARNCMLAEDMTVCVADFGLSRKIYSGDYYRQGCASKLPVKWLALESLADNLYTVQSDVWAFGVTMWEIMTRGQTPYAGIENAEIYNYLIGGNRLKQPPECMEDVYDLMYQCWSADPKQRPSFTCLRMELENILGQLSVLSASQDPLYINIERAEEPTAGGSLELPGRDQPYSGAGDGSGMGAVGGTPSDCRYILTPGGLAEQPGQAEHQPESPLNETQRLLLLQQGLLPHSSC
# TAOK1 (human) = TAOK1 (human) (UniProt Q7L7X3); settings: compound 1.0 µM
# SIK3 (human) = SIK3 (human) (UniProt Q9Y2K2); settings: compound 1.0 µM
# EPHA4 (human) = EPHA4 (human) (UniProt P54764); settings: compound 1.0 µM
# MST1R (human) = MST1R (human) (UniProt Q04912); settings: compound 1.0 µM
# CLK4 (human) = CLK4 (human) (UniProt Q9HAZ1); settings: compound 1.0 µM
# AXL (human) = AXL (human) (UniProt P30530); settings: compound 1.0 µM
# MAPK13 (human) = MAPK13 (human) (UniProt O15264); settings: compound 1.0 µM
# [2] = test system: FLT3 (human), P36888 [N841I]; settings: compound 1.0 µM
# ROS1 (human) = ROS1 (human) (UniProt P08922); settings: compound 1.0 µM
# PLK2 (human) = PLK2 (human) (UniProt Q9NYY3); settings: compound 1.0 µM
# PIK3CG (human) = PIK3CG (human) (UniProt P48736); settings: compound 1.0 µM
# FGFR3 (human) = FGFR3 (human) (UniProt P22607); settings: compound 1.0 µM
# PKN3 (M.tuberculosis) = PKN3 (M.tuberculosis) (UniProt Q6P5Z2); settings: compound 1.0 µM
# RIOK2 (human) = RIOK2 (human) (UniProt Q9BVS4); settings: for kinase still bound, per cent of control: compound 1.0 µM
# RIOK2 (human), sequence (Q9BVS4 whole entry, looked up): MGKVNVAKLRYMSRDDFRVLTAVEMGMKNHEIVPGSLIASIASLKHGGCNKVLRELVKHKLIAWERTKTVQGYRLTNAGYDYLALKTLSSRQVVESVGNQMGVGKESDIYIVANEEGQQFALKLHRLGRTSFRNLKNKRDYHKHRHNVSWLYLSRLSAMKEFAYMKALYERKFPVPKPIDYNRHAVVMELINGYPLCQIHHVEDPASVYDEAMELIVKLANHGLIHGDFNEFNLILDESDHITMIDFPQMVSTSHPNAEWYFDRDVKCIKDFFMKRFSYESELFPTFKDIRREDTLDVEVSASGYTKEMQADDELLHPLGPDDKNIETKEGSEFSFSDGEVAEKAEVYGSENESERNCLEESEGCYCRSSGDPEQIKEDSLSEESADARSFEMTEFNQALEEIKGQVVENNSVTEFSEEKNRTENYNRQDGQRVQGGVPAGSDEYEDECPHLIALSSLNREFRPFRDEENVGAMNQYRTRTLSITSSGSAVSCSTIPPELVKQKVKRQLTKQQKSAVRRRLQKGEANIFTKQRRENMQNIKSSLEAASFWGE
# ACVR2A (human) = ACVR2A (human) (UniProt P27037); settings: compound 1.0 µM
# TNK2 (human) = TNK2 (human) (UniProt Q07912); settings: compound 1.0 µM
# [3] = test system: ABL1 (human), P00519 [M351T]; settings: compound 1.0 µM
# BTK (human) = BTK (human) (UniProt Q06187); settings: compound 1.0 µM
# BTK (human), sequence (Q06187 whole entry, looked up): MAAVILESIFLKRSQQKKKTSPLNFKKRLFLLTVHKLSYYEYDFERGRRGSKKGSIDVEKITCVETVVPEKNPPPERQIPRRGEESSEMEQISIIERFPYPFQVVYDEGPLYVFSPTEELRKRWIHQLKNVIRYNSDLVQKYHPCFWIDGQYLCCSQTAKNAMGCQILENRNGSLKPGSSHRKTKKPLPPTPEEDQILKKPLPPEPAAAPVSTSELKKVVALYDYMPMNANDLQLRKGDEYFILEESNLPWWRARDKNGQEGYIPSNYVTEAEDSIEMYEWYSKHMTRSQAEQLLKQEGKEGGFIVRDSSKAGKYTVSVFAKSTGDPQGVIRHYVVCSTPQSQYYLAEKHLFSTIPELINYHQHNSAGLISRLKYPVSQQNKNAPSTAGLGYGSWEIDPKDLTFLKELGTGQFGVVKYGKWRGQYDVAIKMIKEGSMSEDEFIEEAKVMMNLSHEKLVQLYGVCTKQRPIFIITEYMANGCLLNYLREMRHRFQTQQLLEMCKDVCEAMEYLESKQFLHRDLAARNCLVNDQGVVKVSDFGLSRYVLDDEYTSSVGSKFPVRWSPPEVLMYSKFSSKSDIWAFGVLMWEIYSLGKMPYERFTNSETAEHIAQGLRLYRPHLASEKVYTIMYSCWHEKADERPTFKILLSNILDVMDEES
# CDC42BPG (human) = CDC42BPG (human) (UniProt Q6DT37); settings: compound 1.0 µM
# [4] = test system: LRRK2 (human), Q5S007 [G2019S]; settings: compound 1.0 µM
# [5] = test system: FLT3 (human), P36888 [ITD]; settings: compound 1.0 µM
# CSNK1E (human) = CSNK1E (human) (UniProt P49674); settings: compound 1.0 µM
# EGFR (human) = EGFR (human) (UniProt P00533); settings: compound 1.0 µM
# PDGFRB (human) = PDGFRB (human) (UniProt P09619); settings: compound 1.0 µM
# ERBB2 (human) = ERBB2 (human) (UniProt P04626); settings: compound 1.0 µM
# [6] = target: TYK2 JH1 catalytic (human) (UniProt P29597); settings: compound 1.0 µM
# PIP4K2C (human) = PIP4K2C (human) (UniProt Q8TBX8); settings: compound 1.0 µM
# [7] = test system: KIT (human), P10721 [D816V]; settings: compound 1.0 µM
# KIT (human), P10721 [D816V], sequence (P10721 whole entry D816V, looked up): as the sequence (P10721 whole entry V559D/T670I, looked up) above, with D559V, I670T, D816V counted along it
# MST4 (human) = MST4 (human) (UniProt Q9P289); settings: compound 1.0 µM
# CLK3 (human) = CLK3 (human) (UniProt P49761); settings: compound 1.0 µM
# BRSK1 (human) = BRSK1 (human) (UniProt Q8TDC3); settings: compound 1.0 µM
# MLTK (human) = MLTK (human) (UniProt Q9NYL2); settings: compound 1.0 µM
# CSNK2A1 (human) = CSNK2A1 (human) (UniProt P68400); settings: compound 1.0 µM
# BMPR1A (human), sequence (P36894 whole entry, looked up): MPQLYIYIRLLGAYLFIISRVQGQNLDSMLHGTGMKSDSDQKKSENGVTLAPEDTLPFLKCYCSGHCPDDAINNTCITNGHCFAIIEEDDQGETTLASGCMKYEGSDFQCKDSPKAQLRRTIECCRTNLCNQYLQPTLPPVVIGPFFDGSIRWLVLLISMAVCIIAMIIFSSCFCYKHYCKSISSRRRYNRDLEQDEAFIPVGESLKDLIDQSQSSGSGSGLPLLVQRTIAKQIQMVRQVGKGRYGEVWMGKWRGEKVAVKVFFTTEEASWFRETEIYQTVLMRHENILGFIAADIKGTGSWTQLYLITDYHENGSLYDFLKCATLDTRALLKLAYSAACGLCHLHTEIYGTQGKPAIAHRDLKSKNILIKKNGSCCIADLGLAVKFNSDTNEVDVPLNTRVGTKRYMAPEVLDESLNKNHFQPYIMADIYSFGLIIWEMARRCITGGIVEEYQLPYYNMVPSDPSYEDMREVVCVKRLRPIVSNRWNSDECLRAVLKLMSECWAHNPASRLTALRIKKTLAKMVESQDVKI
smiles,measurement,setting,value
Cc1cc(NC(=O)c2cccc(NC(=O)/C=C/CN(C)C)c2)ccc1Nc1nccc(-c2cccnc2)n1,"kinase still bound, per cent of control",BMPR1A (human),100%
same,"kinase still bound, per cent of control",MAP3K5 (human),100%
same,"kinase still bound, per cent of control",ZAP70 (human),79%
same,"kinase still bound, per cent of control",TTK (human),46%
same,"kinase still bound, per cent of control",RIPK2 (human),99%
same,"kinase still bound, per cent of control",[1],4.4%
same,"kinase still bound, per cent of control",SRPK3 (human),70%
same,"kinase still bound, per cent of control",AKT2 (human),100%
same,"kinase still bound, per cent of control",TYRO3 (human),85%
same,"kinase still bound, per cent of control",TAOK1 (human),67%
same,"kinase still bound, per cent of control",SIK3 (human),100%
same,"kinase still bound, per cent of control",EPHA4 (human),100%
same,"kinase still bound, per cent of control",MST1R (human),100%
same,"kinase still bound, per cent of control",CLK4 (human),93%
same,"kinase still bound, per cent of control",AXL (human),77%
same,"kinase still bound, per cent of control",MAPK13 (human),100%
same,"kinase still bound, per cent of control",[2],93%
same,"kinase still bound, per cent of control",ROS1 (human),90%
same,"kinase still bound, per cent of control",PLK2 (human),79%
same,"kinase still bound, per cent of control",PIK3CG (human),100%
same,"kinase still bound, per cent of control",FGFR3 (human),100%
same,"kinase still bound, per cent of control",PKN3 (M.tuberculosis),100%
same,Kd,RIOK2 (human),120 nM
same,"kinase still bound, per cent of control",RIOK2 (human),10%
same,"kinase still bound, per cent of control",ACVR2A (human),100%
same,"kinase still bound, per cent of control",TNK2 (human),90%
same,"kinase still bound, per cent of control",[3],81%
same,"kinase still bound, per cent of control",BTK (human),100%
same,"kinase still bound, per cent of control",CDC42BPG (human),86%
same,"kinase still bound, per cent of control",[4],67%
same,"kinase still bound, per cent of control",[5],50%
same,"kinase still bound, per cent of control",CSNK1E (human),70%
same,"kinase still bound, per cent of control",EGFR (human),100%
same,"kinase still bound, per cent of control",PDGFRB (human),4.7%
same,"kinase still bound, per cent of control",ERBB2 (human),82%
same,"kinase still bound, per cent of control",[6],96%
same,"kinase still bound, per cent of control",PIP4K2C (human),46%
same,"kinase still bound, per cent of control",[7],54%
same,"kinase still bound, per cent of control",MST4 (human),82%
same,"kinase still bound, per cent of control",CLK3 (human),100%
same,"kinase still bound, per cent of control",BRSK1 (human),100%
same,"kinase still bound, per cent of control",MLTK (human),100%
same,"kinase still bound, per cent of control",CSNK2A1 (human),57%
CN(C)C/C=C/C(=O)Nc1cccc(C(=O)Nc2ccc(Nc3nccc(/C(C#N)=C4\Nc5ccccc5S4)n3)cc2)c1,"kinase still bound, per cent of control",BMPR1A (human),100%
same,"kinase still bound, per cent of control",MAP3K5 (human),100%
same,"kinase still bound, per cent of control",ZAP70 (human),81%
same,"kinase still bound, per cent of control",TTK (human),100%
same,"kinase still bound, per cent of control",RIPK2 (human),100%
same,Kd,[1],160 nM
same,"kinase still bound, per cent of control",[1],6.6%
same,"kinase still bound, per cent of control",SRPK3 (human),82%
same,"kinase still bound, per cent of control",AKT2 (human),100%
same,"kinase still bound, per cent of control",TYRO3 (human),100%
same,"kinase still bound, per cent of control",TAOK1 (human),74%
same,"kinase still bound, per cent of control",SIK3 (human),100%
same,"kinase still bound, per cent of control",EPHA4 (human),100%
same,"kinase still bound, per cent of control",MST1R (human),100%
same,"kinase still bound, per cent of control",CLK4 (human),64%
same,"kinase still bound, per cent of control",AXL (human),100%
same,"kinase still bound, per cent of control",MAPK13 (human),86%
same,"kinase still bound, per cent of control",[2],51%
same,"kinase still bound, per cent of control",ROS1 (human),58%
same,"kinase still bound, per cent of control",PLK2 (human),65%
same,"kinase still bound, per cent of control",PIK3CG (human),51%
same,"kinase still bound, per cent of control",FGFR3 (human),100%
same,"kinase still bound, per cent of control",PKN3 (M.tuberculosis),53%
same,"kinase still bound, per cent of control",RIOK2 (human),18%
same,"kinase still bound, per cent of control",ACVR2A (human),79%
same,"kinase still bound, per cent of control",TNK2 (human),70%
same,"kinase still bound, per cent of control",[3],69%
same,"kinase still bound, per cent of control",BTK (human),76%
same,"kinase still bound, per cent of control",CDC42BPG (human),88%
same,"kinase still bound, per cent of control",[4],100%
same,"kinase still bound, per cent of control",[5],57%
same,"kinase still bound, per cent of control",CSNK1E (human),41%
same,"kinase still bound, per cent of control",EGFR (human),81%
same,"kinase still bound, per cent of control",PDGFRB (human),35%
same,"kinase still bound, per cent of control",ERBB2 (human),100%
same,"kinase still bound, per cent of control",[6],72%
same,"kinase still bound, per cent of control",PIP4K2C (human),35%
same,"kinase still bound, per cent of control",[7],41%
same,"kinase still bound, per cent of control",MST4 (human),100%
same,"kinase still bound, per cent of control",CLK3 (human),100%
same,"kinase still bound, per cent of control",BRSK1 (human),90%
same,"kinase still bound, per cent of control",MLTK (human),98%
same,"kinase still bound, per cent of control",CSNK2A1 (human),27%
